Where two headings read alike, the source gives them in different places.
Key:
BCL2 WT = BCL2 WT (Homo sapiens (Human), UniProt P10415); assay: TR-FRET competitive binding assay, BCL2 WT
Summary of the method: (§1)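 Terbium-labelled N-terminal Halo-fusion BCL2 or BCLXL (E. coli), 0.5 nM, competed against fluorescein-labelled PUMA peptide (2 or 20 nM) for 2 h at 23° C in 50 mM Hepes pH 7.5, 150 mM NaCl, 5% DMSO. TR-FRET 520/495 nm ratio gave IC50 by four-parameter fit; Ki derived from IC50.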

KMS-12-PE Bcl-2 WT = assay: In vitro cytotoxicity CellTiter-Glo 48 h, KMS-12-PE Bcl-2 WT; assay type: cell-based; details: Homo sapiens, KMS-12-PE, C50 = concentration needed to reach 50% of the cellular viability
Summary of the method: (§2)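 KMS-12-PE myeloma cells were lentivirally transduced with wild-type or G101V-mutant Bcl-2 and sorted by TagRFP. They were exposed to compounds as 11-point dose responses for 48 h at 37 °C, 5% CO2. Viability was read by CellTiter-Glo ATP luminescence, and C50 was the concentration giving 50% viability.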

KMS-12-PE Bcl-2 G101V = assay: In vitro cytotoxicity CellTiter-Glo 48 h, KMS-12-PE Bcl-2 G101V; assay type: cell-based; details: for Ratio (G101V/WT): C50 KMS-12-PE Bcl-2 G101V over C50 KMS-12-PE Bcl-2 WT; for IC50: Homo sapiens, KMS-12-PE, 48 h, CellTiter-Glo, C50 = concentration needed to reach 50% of the cellular viability
Summary of the method: as §2

BCL2 D103Y = BCL2 D103Y (Homo sapiens, UniProt P10415, D103Y); assay: TR-FRET competitive binding assay, BCL2 D103Y; details: Ki determined from IC50, read-out: TR_FRET EKI_Bcl2 D103Y
Summary of the method: as §1

BCLXL WT = BCLXL WT (Homo sapiens (Human), UniProt Q07817); assay: TR-FRET competitive binding assay, BCLXL WT; details: for Ki: BCLXL WT, Ki determined from IC50, read-out: TR_FRET EKI BclxL; for TR_FRET EKI BCLxL/WT selectivty ratio: ratio Ki BCLxL / Ki BCL2 WT; for TR_FRET EKI BCLxL/WT selectivty: ratio of Ki BCLxL to BCL2 WT
Summary of the method: as §1

BCL2 G101V [1] = assay: TR-FRET competitive binding assay, BCL2 G101V; design: species or system human; details: for TR_FRET EKI G101V/WT selectivty ratio: ratio Ki BCL2 G101V / Ki BCL2 WT; for TR_FRET EKI G101V/WT selectivty: ratio of Ki BCL2 G101V to BCL2 WT
Summary of the method: as §1

BCL2 G101V [2] = target: BCL2 G101V (Homo sapiens, UniProt P10415, G101V); assay: TR-FRET competitive binding assay, BCL2 G101V; details: BCL2 G101V; Ki determined from IC50; read-out: TR_FRET EKI_Bcl2 G101V
Summary of the method: as §1

[3] = Ki determined from IC50, read-out: TR_FRET EKI_Bcl2 WT
[4] = Ki determined from IC50, read-out: TR_FRET EKI_Bcl2

BCLXL WT, sequence (Q07817 other isoform, or with tags, fused parts or gaps): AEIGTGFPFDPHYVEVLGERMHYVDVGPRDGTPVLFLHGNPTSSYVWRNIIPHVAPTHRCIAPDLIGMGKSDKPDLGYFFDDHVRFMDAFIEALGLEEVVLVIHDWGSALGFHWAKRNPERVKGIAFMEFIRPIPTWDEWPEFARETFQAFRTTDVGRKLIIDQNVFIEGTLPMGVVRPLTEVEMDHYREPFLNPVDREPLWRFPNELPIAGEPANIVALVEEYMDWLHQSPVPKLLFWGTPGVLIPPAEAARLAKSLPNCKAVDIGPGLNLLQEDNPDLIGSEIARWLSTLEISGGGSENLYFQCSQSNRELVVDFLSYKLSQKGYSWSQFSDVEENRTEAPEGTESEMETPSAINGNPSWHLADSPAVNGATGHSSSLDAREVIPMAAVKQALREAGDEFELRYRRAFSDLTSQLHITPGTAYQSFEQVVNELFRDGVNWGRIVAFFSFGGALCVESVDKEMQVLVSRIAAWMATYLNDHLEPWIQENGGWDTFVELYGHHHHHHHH

Compound | Ki (BCL2 WT; [3]) | IC50 (KMS-12-PE Bcl-2 WT) | Ratio (G101V/WT) (KMS-12-PE Bcl-2 G101V) | IC50 (KMS-12-PE Bcl-2 G101V) | Ki (BCL2 D103Y) | Ki (BCLXL WT) | TR_FRET EKI BCLxL/WT selectivty ratio (BCLXL WT) | TR_FRET EKI G101V/WT selectivty ratio (BCL2 G101V [1]) | Ki (BCL2 G101V [2]) | Ki (BCL2 WT; [4]) | TR_FRET EKI BCLxL/WT selectivty (BCLXL WT) | TR_FRET EKI G101V/WT selectivty (BCL2 G101V [1])
Cc1c(N(C(=O)c2cc(-c3cc4c(cc3C(=O)N3Cc5ccccc5C[C@H]3CN3CCCC3)CN(C(=O)Cc3c(F)cc(OCCN5CCOCC5)cc3F)CC4)n(C)c2C)c2ccc(O)cc2)cc(C#N)n1C [Example 171, N-(5-cyano-1,2-dimethyl-pyrrol-3-yl)-5-[2-[2-[2,6-difluoro-4-(2-morpholinoethoxy)phenyl]acetyl]-7-[(3S)-3-(pyrrolidin-1-ylmethyl)-3,4-dihydro-1H-isoquinoline-2-carbonyl]-3,4-dihydro-1H-isoquinolin-6-yl]-N-(4-hydroxyphenyl)-1,2-dimethyl-pyrrole-3-carboxamide] | 20 pM | 0.0128 µM | 4.7109 | 0.0603 µM | 90 pM | 1300 pM | 61.9 | 7.1 | 200 pM | – | – | –
COC[C@@H]1Cc2ccccc2CN1C(=O)c1cc2c(cc1-c1cc(C(=O)N(c3ccc(O)cc3)c3cc(C#N)n(C(F)F)c3C)c(C)n1C)CCN(C(=O)Cc1ccc(OCCN3CCOCC3)cc1)C2 [Example 172, N-[5-cyano-1-(difluoromethyl)-2-methyl-pyrrol-3-yl]-N-(4-hydroxyphenyl)-5-[7-[(3S)-3-(methoxymethyl)-3,4-dihydro-1H-isoquinoline-2-carbonyl]-2-[2-[4-(2-morpholinoethoxy)phenyl]acetyl]-3,4-dihydro-1H-isoquinolin-6-yl]-1,2-dimethyl-pyrrole-3-carboxamide] | 110 pM | 0.0061 µM | 4.6557 | 0.0284 µM | 390 pM | 3200 pM | 29.1 | 4.4 | 500 pM | – | – | –
Cc1c(N(C(=O)c2cc(-c3cc4c(cc3C(=O)N3Cc5ccccc5C[C@H]3CN3CCC5(CC5)C3)CN(C(=O)Cc3ccc(OCCN5CCOCC5)cc3F)CC4)n(C)c2C)c2ccc(O)cc2)cc(C#N)n1C [Example 176, 5-[7-[(3S)-3-(5-azaspiro[2.4]heptan-5-ylmethyl)-3,4-dihydro-1H-isoquinoline-2-carbonyl]-2-[2-[2-fluoro-4-(2-morpholinoethoxy)phenyl]acetyl]-3,4-dihydro-1H-isoquinolin-6-yl]-N-(5-cyano-1,2-dimethyl-pyrrol-3-yl)-N-(4-hydroxyphenyl)-1,2-dimethyl-pyrrole-3-carboxamide] | 30 pM | 0.0093 µM | 6.4155 | 0.0596 µM | 160 pM | 2300 pM | 74.2 | 5.8 | 200 pM | – | – | –
Cc1ncc(N(C(=O)c2cc(-c3cc4c(cc3C(=O)N3Cc5ccccc5C[C@H]3CN3CCCCC3)CN(C(=O)Cc3ccc(OCCN5CCOCC5)cc3F)CC4)n(C)c2C)c2ccc(O)cc2)cc1C#N [Example 177, N-(5-cyano-6-methyl-3-pyridyl)-5-[2-[2-[2-fluoro-4-(2-morpholinoethoxy)phenyl]acetyl]-7-[(3S)-3-(1-piperidylmethyl)-3,4-dihydro-1H-isoquinoline-2-carbonyl]-3,4-dihydro-1H-isoquinolin-6-yl]-N-(4-hydroxyphenyl)-1,2-dimethyl-pyrrole-3-carboxamide] | 50 pM | 0.0052 µM | 11.238 | 0.0581 µM | 120 pM | 12400 pM | 229.0 | 10.0 | 500 pM | – | – | –
COc1ccc(N(C(=O)c2cc(-c3cc4c(cc3C(=O)N3Cc5ccccc5C[C@H]3CN(C)C(C)C)CN(C(=O)Cc3ccc(OCCN5CCOCC5)cc3F)CC4)n(C)c2C)c2ccc(O)cc2)cc1C#N [Example 179, N-(3-cyano-4-methoxy-phenyl)-5-[2-[2-[2-fluoro-4-(2-morpholinoethoxy)phenyl]acetyl]-7-[(3S)-3-[[isopropyl(methyl)amino]methyl]-3,4-dihydro-1H-isoquinoline-2-carbonyl]-3,4-dihydro-1H-isoquinolin-6-yl]-N-(4-hydroxyphenyl)-1,2-dimethyl-pyrrole-3-carboxamide] | 40 pM | 0.0117 µM | 9.658 | 0.113 µM | 130 pM | 6100 pM | 148.0 | 14.7 | 600 pM | – | – | –
Cc1c(N(C(=O)c2cc(-c3cc4c(cc3C(=O)N3Cc5ccccc5C[C@H]3CN)CN(C(=O)Cc3ccc(OCCN5CCOCC5)cc3F)CC4)n(C)c2C)c2ccc(O)cc2)cc(C#N)n1C [Example 230] | – | 0.351 µM | 2.7 | 0.964 µM | 66 pM | 900 pM | – | – | 67 pM | 14 pM | 64.3 | 4.8
Cc1c(N(C(=O)c2cc(-c3cc4c(cc3C(=O)N3Cc5ccccc5C[C@H]3C)CN(C(=O)Cc3ccc(OCCNCCF)cc3)CC4)n(C)c2C)c2ccc(O)cc2)cc(C#N)n1C [Example 235] | – | 0.0208 µM | 4.7 | 0.0968 µM | 110 pM | 890 pM | – | – | 130 pM | 31 pM | 28.7 | 4.2
